# Values joined by “and” are separate entries in the source; they are usually repeats but may differ in a detail not shown here. Identical values can stand only once.
# Legend:
# serum uric acid [1] = experiment: Serum uric acid after a single dose (tablet or suspension) in healthy human subjects (Example 33); assay type: in vivo; conditions: individual subjects
# Protocol: Thirty six healthy human subjects are administered either […] or a suspension containing the noted amount of the compound of Example 3 after fasting for at least 8 hours. subjects are administered 200 mg of compound; twelve subjects are administered 400 mg of compound; and twelve subjects are administered 600 mg of compound. Blood was collected before subjects are given the compound (Day −1) and the day following administration (Day 2). Serum uric levels may be measured using standard automated procedures on a uricase peroxidase method. Serum uric acid levels are […] in mg/dL.
# serum uric acid [2] = experiment: Serum uric acid during 28-day once-daily oral dosing, placebo-controlled study in 48 subjects (Example 34); assay type: in vivo, human
# Protocol: In another study, 48 subjects were divided into four groups, A, B, C and D, and administered the noted amount of the compound of Example 3. Each group was composed of 12 subjects of whom 9 received the compound and 3 received placebo. The non-placebo members of group A received 50 mg of compound, administered orally once a day for 28 days as a single 50 mg tablet. The non-placebo members of group B received 200 mg of compound administered orally once a day for 28 days as a single 200 mg tablet. The non-placebo members of group C received 500 mg of compound administered orally once a day for 28 days as two 50 mg tablets and two 200 mg tablets. The non-placebo members of group D received 800 mg of compound administered orally once a day for 28 days as four 200 mg tablets. The 3 placebo members of each group, received an amount of placebo, as a tablet, equivalent to the amount of test compound—50 mg placebo for group A, 200 mg placebo for group B, 500 mg placebo for group C and 800 mg placebo for group D. Each subject received a single dose of either compound or placebo for 28 days. The subjects were confined at the clinical site beginning the day before dose administration until 72 hours after the final dose administration on Day 28 and returned for an outpatient visit on Day 35.
# Uric acid levels were measured prior to beginning the study (screening), on the day immediately prior to commencement of the study (day-1), and then as noted in the table. Hours indicates the time since the last dose was administered. For example, Day 7, 0 hour indicates the time the serum uric acid level at the time the dose was administered and Day 7, 2 hour indicates the uric acid level two hours after the adminstration that day. Further, the Day 30, 60 hour level is the serum uric acid level measured 60 hours (on Day 30) after the last dose was administered on Day 28. The uric acid levels are presented in mg/dL as a mean of all subjects in each group.
structure (smiles),measurement,setting,value
"O=C(O)Cn1cc(Cc2nc3c(F)c(F)cc(F)c3s2)c2ccccc21 [Example 3, 3-(4,5,7-Trifluorobenzothiazol-2-yl)methyl-indole-N-acetic Acid]",% Reduction (Suspension),"serum uric acid [1]; 200 mg suspension, Day 2 vs Day-1",36% (3×) and 27% and 25% and −51% and 23% (2×) and 35% and 0% and 20% and 11%
same,Uric Acid Day-1 Suspension,"serum uric acid [1]; 200 mg suspension, before administration (baseline)",5.0 mg/dL (2×) and 6.0 mg/dL and 5.3 mg/dL (2×) and 4.3 mg/dL and 5.2 mg/dL and 5.5 mg/dL and 4.7 mg/dL and 3.3 mg/dL and 6.3 mg/dL and 4.5 mg/dL
same,Uric Acid Day 2 (Suspension),"serum uric acid [1]; 200 mg suspension, day following administration",3.2 mg/dL and 4.4 mg/dL and 4.0 mg/dL (3×) and 6.5 mg/dL and 3.6 mg/dL (2×) and 5.3 mg/dL and 2.1 mg/dL and 5.6 mg/dL and 2.9 mg/dL
same,% reduction (Tablet),"serum uric acid [1]; 200 mg tablet, Day 2 vs Day-1",28% and 27% and 26% and −3% and 16% (2×) and 39% (2×) and −2% and 32% and 41% and −16%
same,Uric Acid Day-1 Tablet,"serum uric acid [1]; 200 mg tablet, before administration (baseline)",5.0 mg/dL and 6.3 mg/dL and 5.3 mg/dL and 5.8 mg/dL and 4.9 mg/dL (3×) and 6.2 mg/dL and 5.2 mg/dL and 5.7 mg/dL and 3.7 mg/dL and 5.1 mg/dL
same,Uric Acid Day 2 (Tablet),"serum uric acid [1]; 200 mg tablet, day following administration",3.6 mg/dL and 4.6 mg/dL and 3.9 mg/dL (2×) and 6.0 mg/dL and 4.1 mg/dL (2×) and 3.8 mg/dL and 5.3 mg/dL and 2.2 mg/dL and 5.7 mg/dL and 3.1 mg/dL
same,% reduction,"serum uric acid [1]; 400 mg, Day 2 vs Day-1",47% and 5% and 67% and 9% and 49% and 43% and 2% and 36% and 45% and 51% and −13% and 24%
same,Uric acid Day-1,"serum uric acid [1]; 400 mg, before administration (baseline)",4.5 mg/dL and 4.3 mg/dL and 6.6 mg/dL and 5.3 mg/dL and 3.7 mg/dL and 5.6 mg/dL and 6.0 mg/dL and 4.7 mg/dL (2×) and 7.7 mg/dL and 6.2 mg/dL and 4.6 mg/dL
same,Uric acid Day 2,"serum uric acid [1]; 400 mg, day following administration",2.4 mg/dL and 4.1 mg/dL and 2.2 mg/dL and 4.8 mg/dL and 1.9 mg/dL and 3.2 mg/dL and 5.9 mg/dL and 3.0 mg/dL and 4.2 mg/dL and 2.3 mg/dL and 7.0 mg/dL and 3.5 mg/dL
same,% reduction,"serum uric acid [1]; 600 mg, Day 2 vs Day-1",−6% and −44% and 45% and 55% and 42% and 2% and 57% and 47% and 37% and 58% and 50%
same,Uric acid Day-1,"serum uric acid [1]; 600 mg, before administration (baseline)",4.7 mg/dL and 4.3 mg/dL and 5.5 mg/dL and 4.4 mg/dL (2×) and 5.9 mg/dL and 4.6 mg/dL and 3.5 mg/dL and 3.4 mg/dL and 3.0 mg/dL and 3.9 mg/dL
same,Uric acid Day 2,"serum uric acid [1]; 600 mg, day following administration",5.0 mg/dL and 33 mg/dL and 6.2 mg/dL and 3.0 mg/dL and 2.0 mg/dL and 3.4 mg/dL and 4.5 mg/dL and 1.5 mg/dL and 1.8 mg/dL and 1.9 mg/dL and 1.7 mg/dL and 2.2 mg/dL
same,Uric Acid Level (mean of all subjects in each group),"serum uric acid [2]; group A 50 mg orally once a day, Day 1 8 Hour",3.94 mg/dL
same,Uric Acid Level (mean of all subjects in each group),"serum uric acid [2]; group A 50 mg orally once a day, Day 1 10 Hour",3.87 mg/dL
same,Uric Acid Level (mean of all subjects in each group),"serum uric acid [2]; group A 50 mg orally once a day, Day 1 12 Hour",3.89 mg/dL
same,Uric Acid Level (mean of all subjects in each group),"serum uric acid [2]; group A 50 mg orally once a day, Day 1 16 Hour",3.98 mg/dL
same,Uric Acid Level (mean of all subjects in each group),"serum uric acid [2]; group A 50 mg orally once a day, Day 1 24 Hour",4.19 mg/dL
same,Uric Acid Level (mean of all subjects in each group),"serum uric acid [2]; group A 50 mg orally once a day, Day 3",3.62 mg/dL
same,Uric Acid Level (mean of all subjects in each group),"serum uric acid [2]; group A 50 mg orally once a day, Day 7 0 Hour",3.36 mg/dL
same,Uric Acid Level (mean of all subjects in each group),"serum uric acid [2]; group A 50 mg orally once a day, Day 7 0.5 Hour",3.33 mg/dL
same,Uric Acid Level (mean of all subjects in each group),"serum uric acid [2]; group A 50 mg orally once a day, Day 7 1 Hour",3.28 mg/dL
same,Uric Acid Level (mean of all subjects in each group),"serum uric acid [2]; group A 50 mg orally once a day, Day 7 2 Hour",3.14 mg/dL
same,Uric Acid Level (mean of all subjects in each group),"serum uric acid [2]; group A 50 mg orally once a day, Day 7 3 Hour",3.03 mg/dL
same,Uric Acid Level (mean of all subjects in each group),"serum uric acid [2]; group A 50 mg orally once a day, Day 7 4 Hour",2.99 mg/dL
same,Uric Acid Level (mean of all subjects in each group),"serum uric acid [2]; group A 50 mg orally once a day, Day 7 6 Hour",3.30 mg/dL
same,Uric Acid Level (mean of all subjects in each group),"serum uric acid [2]; group A 50 mg orally once a day, Day 7 8 Hour",3.34 mg/dL
same,Uric Acid Level (mean of all subjects in each group),"serum uric acid [2]; group A 50 mg orally once a day, Day 7 10 Hour",3.36 mg/dL
same,Uric Acid Level (mean of all subjects in each group),"serum uric acid [2]; group A 50 mg orally once a day, Day 7 12 Hour",3.26 mg/dL
same,Uric Acid Level (mean of all subjects in each group),"serum uric acid [2]; group A 50 mg orally once a day, Day 7 16 Hour",3.07 mg/dL
same,Uric Acid Level (mean of all subjects in each group),"serum uric acid [2]; group A 50 mg orally once a day, Day 7 24 Hour",3.48 mg/dL
same,Uric Acid Level (mean of all subjects in each group),"serum uric acid [2]; group A 50 mg orally once a day, Day 14 0 Hour",3.51 mg/dL
same,Uric Acid Level (mean of all subjects in each group),"serum uric acid [2]; group A 50 mg orally once a day, Day 14 0.5 Hour",3.43 mg/dL
same,Uric Acid Level (mean of all subjects in each group),"serum uric acid [2]; group A 50 mg orally once a day, Day 14 1 Hour",3.41 mg/dL
same,Uric Acid Level (mean of all subjects in each group),"serum uric acid [2]; group A 50 mg orally once a day, Day 14 2 Hour",3.37 mg/dL
same,Uric Acid Level (mean of all subjects in each group),"serum uric acid [2]; group A 50 mg orally once a day, Day 14 3 Hour",3.19 mg/dL
same,Uric Acid Level (mean of all subjects in each group),"serum uric acid [2]; group A 50 mg orally once a day, Day 14 4 Hour",3.17 mg/dL
same,Uric Acid Level (mean of all subjects in each group),"serum uric acid [2]; group A 50 mg orally once a day, Day 14 6 Hour",3.38 mg/dL
same,Uric Acid Level (mean of all subjects in each group),"serum uric acid [2]; group A 50 mg orally once a day, Day 14 8 Hour",3.34 mg/dL
same,Uric Acid Level (mean of all subjects in each group),"serum uric acid [2]; group A 50 mg orally once a day, Day 14 10 Hour",3.24 mg/dL
same,Uric Acid Level (mean of all subjects in each group),"serum uric acid [2]; group B 200 mg orally once a day, Day 1 8 Hour",3.37 mg/dL
same,Uric Acid Level (mean of all subjects in each group),"serum uric acid [2]; group B 200 mg orally once a day, Day 1 10 Hour",3.16 mg/dL
same,Uric Acid Level (mean of all subjects in each group),"serum uric acid [2]; group B 200 mg orally once a day, Day 1 12 Hour",3.12 mg/dL
same,Uric Acid Level (mean of all subjects in each group),"serum uric acid [2]; group B 200 mg orally once a day, Day 1 16 Hour",3.01 mg/dL
same,Uric Acid Level (mean of all subjects in each group),"serum uric acid [2]; group B 200 mg orally once a day, Day 1 24 Hour",3.64 mg/dL
same,Uric Acid Level (mean of all subjects in each group),"serum uric acid [2]; group B 200 mg orally once a day, Day 3",2.94 mg/dL
same,Uric Acid Level (mean of all subjects in each group),"serum uric acid [2]; group B 200 mg orally once a day, Day 7 0 Hour",2.86 mg/dL
same,Uric Acid Level (mean of all subjects in each group),"serum uric acid [2]; group B 200 mg orally once a day, Day 7 0.5 Hour",2.79 mg/dL
same,Uric Acid Level (mean of all subjects in each group),"serum uric acid [2]; group B 200 mg orally once a day, Day 7 1 Hour",2.74 mg/dL
same,Uric Acid Level (mean of all subjects in each group),"serum uric acid [2]; group B 200 mg orally once a day, Day 7 2 Hour",2.61 mg/dL
same,Uric Acid Level (mean of all subjects in each group),"serum uric acid [2]; group B 200 mg orally once a day, Day 7 3 Hour",2.50 mg/dL
same,Uric Acid Level (mean of all subjects in each group),"serum uric acid [2]; group B 200 mg orally once a day, Day 7 4 Hour",2.47 mg/dL
same,Uric Acid Level (mean of all subjects in each group),"serum uric acid [2]; group B 200 mg orally once a day, Day 7 6 Hour",2.72 mg/dL
same,Uric Acid Level (mean of all subjects in each group),"serum uric acid [2]; group B 200 mg orally once a day, Day 7 8 Hour",2.54 mg/dL
same,Uric Acid Level (mean of all subjects in each group),"serum uric acid [2]; group B 200 mg orally once a day, Day 7 10 Hour",2.53 mg/dL
same,Uric Acid Level (mean of all subjects in each group),"serum uric acid [2]; group B 200 mg orally once a day, Day 7 12 Hour",2.44 mg/dL
same,Uric Acid Level (mean of all subjects in each group),"serum uric acid [2]; group B 200 mg orally once a day, Day 7 16 Hour",2.43 mg/dL

# From patent US20010044437A1, “Methods for reducing uric acid levels” (priority 2000, published 2001)
